Experimental data from patent publication US20230241061A1, “METHODS AND PHARMACEUTICAL COMPOSITIONS FOR THE TREATMENT OF FGFR3-RELATED COGNITIVE DEFICIT” (INSERM (INSTITUT NATIONAL DE LA SANTÉ ET DE LA RECHERCHE …, priority 2020, published 2023).
“Also recorded” adds a separate entry of the source.

Assays:
[1] = test system: FGFR3 related Achondroplasia mouse model; settings: subcutaneous injections, Komla-Ebri et al. 2016; cited from earlier work
[2] = test system: Fgfr3^A385E/+ mice; assay: Novel object recognition (NOR) in CAN mouse model; format: in vivo; settings: 4-month-old male Fgfr3^A385E/+ mice, daily intra-cerebro-ventricular injections for 7 days, compared to control littermates, FIG. 2B
Experimental: A. Local daily intracerebroventricular injection with either BGJ398 or vehicle in 4 month-old male animals during 7 days. NOR training session occurred 1 hour after last injection B. NOR performed on groups injected with vehicle or BGJ398. Injection and NOR were performed on two independent groups with the three conditions each (Fgfr3^+/+ + vehicle, n=15; Fgfr3^A385E/+ + vehicle, n=14; Fgfr3^A385E/+ + BGJ398, n=14. C. Local daily intracerebroventricular injection with either BGJ398 or vehicle in 4 month-old male animals during 7 days. One FST testing session occurring 1 hour after last injection. Immobility duration was assessed during testing. D. FST performed on groups injected with vehicle or BGJ398. Injection and FST were performed on two independent groups with the three conditions each (Fgfr3^+/+ + vehicle, n=15; Fgfr3^A385E/+ + vehicle, n=14; Fgfr3^A385E/+ + BGJ398, n=14). *P<0.05 **P<0.01, ***P<0.001.NS Not significant by ANOVA with Tukey’s multiple comparisons post-test and Student’s unpaired t test. […]
(§1) We used a modified version of the NOR task as described in Glatigny et al., 2019. […] The testing room was lit with two 60-W light bulbs and behavior sessions were recorded with a camera above the testing arena (grey plastic box (60 × 40 × 32 cm)). […] The objects elicited equal levels of exploration as determined in pilot experiments and training phase. […]

[3] = test system: Fgfr3^Asn534Lys/+ mice; assay: Novel object location (NOL) in HCH mouse model; format: in vivo; settings: 4 months old male Fgfr3^Asn534Lys/+ mice, daily subcutaneous 2 mg/kg for six days, p= 0.9538 vs control littermates, FIG. 3A
Experimental: (§2) FIG. 3: Learning impairment is reverse by FGFR3 tyrosine kinase inhibitor daily subcutaneous injection of BGJ398. A. Novel object location (NOL) was performed in 4 months old male animals. Discrimination index was measured 24 h after training phase to assess memory performance of Fgfr3Asn534Lys/+ and their control littermates. B. Novel object recognition (NOR) was performed in 4 months old male animals. Discrimination index was measured 24 h after training phase to assess memory performance of Fgfr3Asn534Lys/+ + BGJ398, Fgfr3Asn534Lys/+ and their control littermates. NOR and NOL were performed on two independent groups of Fgfr3Asn534Lys/+ (n=12) Fgfr3Asn534Lys/+ + BGJ398 (n=14) and their controls (n=14).
(§3) BGJ398 was purchased from LC Laboratories, Woburn, MA, USA. […]
For the novel object location task, all procedures were identical to the novel object recognition task except that during the testing phase, rather than presenting a novel object, mice encountered both familiar objects, with one object located in a different place in the arena. The time and frequency of exploration of the novel/relocated object is measured as an index of memory. Behavior was scored on videos by two observers blind to treatment and the total exploration time of the objects was quantified in the testing phases.

[4] = test system: Fgfr3^Asn534Lys/+ mice; assay: Novel object recognition (NOR) in HCH mouse model; format: in vivo; settings: 4 months old male Fgfr3^Asn534Lys/+ mice, daily subcutaneous 2 mg/kg for six days, p= 0.8697 vs control littermates, FIG. 3B
Experimental: as §2, with “NOR and NOL were performed on two independent groups of Fgfr3Asn534Lys/+ (n=12) Fgfr3Asn534Lys/+ + BGJ398 (n=14) and their controls (n=14).” left out
as §1
The following behaviors were considered as exploration of the objects: sniffing, licking, or touching the object with the nose or with the front legs or directing the nose to the object at a distance ≤ 1 cm. Investigation was not scored if the mouse was on top of the object or completely immobile. The discrimination index was calculated as (time spent exploring the new object - time spent exploring the familiar object) / (total time spent exploring both objects). […]

[5] = molecular target: T1, FGFR3 (Mus musculus, UniProt Q61851, A385E); assay: FGFR3 overactivation in the brain of CAN mouse model; format: in vivo; settings: Fgfr3^A385E/+ mice
T1 construct: from tissue; host or cells: brain (hippocampus) of Fgfr3^A385E/+ knock-in mice

[6] = test system: Fgfr3^A385E/+ mice; assay: Forced swim test (FST) in CAN mouse model; format: in vivo; settings: 4-month-old male Fgfr3^A385E/+ mice, daily intra-cerebro-ventricular injections for 7 days, test 1 hour after last injection, FIG. 2D
Experimental: A. Local daily intracerebroventricular injection with either BGJ398 or vehicle in 4 month-old male animals during 7 days. NOR training session occurred 1 hour after last injection B. NOR performed on groups injected with vehicle or BGJ398. Injection and NOR were performed on two independent groups with the three conditions each (Fgfr3^+/+ + vehicle, n=15; Fgfr3^A385E/+ + vehicle, n=14; Fgfr3^A385E/+ + BGJ398, n=14. C. Local daily intracerebroventricular injection with either BGJ398 or vehicle in 4 month-old male animals during 7 days. One FST testing session occurring 1 hour after last injection. Immobility duration was assessed during testing. D. FST performed on groups injected with vehicle or BGJ398. Injection and FST were performed on two independent groups with the three conditions each (Fgfr3^+/+ + vehicle, n=15; Fgfr3^A385E/+ + vehicle, n=14; Fgfr3^A385E/+ + BGJ398, n=14). *P<0.05 **P<0.01, ***P<0.001.NS Not significant by ANOVA with Tukey’s multiple comparisons post-test and Student’s unpaired t test.
as §3
This test is based on a similar observation than the TST. […] Mice were tested for 5 min, and the time spent immobile (behavioral despair) was quantified.

[7] = molecular target: FGFR3 (Homo sapiens, UniProt P22607); settings: reason given for selecting the inhibitor; cited from earlier work
FGFR3 (Homo sapiens, UniProt P22607), sequence (P22607 23-806, species assumed): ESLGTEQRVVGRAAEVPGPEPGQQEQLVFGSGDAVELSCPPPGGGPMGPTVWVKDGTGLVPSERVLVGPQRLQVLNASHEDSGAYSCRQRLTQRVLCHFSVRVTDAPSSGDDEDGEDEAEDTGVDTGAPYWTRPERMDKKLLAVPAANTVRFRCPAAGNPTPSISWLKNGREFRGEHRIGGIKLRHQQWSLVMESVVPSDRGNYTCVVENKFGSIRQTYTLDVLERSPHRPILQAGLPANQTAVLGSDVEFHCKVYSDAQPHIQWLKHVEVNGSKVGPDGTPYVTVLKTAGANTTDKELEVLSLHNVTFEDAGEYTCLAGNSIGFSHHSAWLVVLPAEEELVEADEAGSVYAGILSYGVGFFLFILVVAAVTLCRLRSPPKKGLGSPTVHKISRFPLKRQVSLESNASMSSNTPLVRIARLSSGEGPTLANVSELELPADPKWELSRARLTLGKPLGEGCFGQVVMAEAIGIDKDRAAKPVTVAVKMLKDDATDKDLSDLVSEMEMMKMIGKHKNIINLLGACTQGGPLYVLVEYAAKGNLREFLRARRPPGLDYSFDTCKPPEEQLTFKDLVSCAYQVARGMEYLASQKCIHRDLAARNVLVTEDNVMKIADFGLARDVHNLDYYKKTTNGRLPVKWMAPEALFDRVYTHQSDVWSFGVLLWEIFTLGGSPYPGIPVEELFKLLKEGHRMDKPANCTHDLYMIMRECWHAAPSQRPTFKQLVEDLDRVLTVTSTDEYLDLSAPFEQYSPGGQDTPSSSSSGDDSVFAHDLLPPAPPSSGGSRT

T1 sequence (Q61851 21-801 A385E): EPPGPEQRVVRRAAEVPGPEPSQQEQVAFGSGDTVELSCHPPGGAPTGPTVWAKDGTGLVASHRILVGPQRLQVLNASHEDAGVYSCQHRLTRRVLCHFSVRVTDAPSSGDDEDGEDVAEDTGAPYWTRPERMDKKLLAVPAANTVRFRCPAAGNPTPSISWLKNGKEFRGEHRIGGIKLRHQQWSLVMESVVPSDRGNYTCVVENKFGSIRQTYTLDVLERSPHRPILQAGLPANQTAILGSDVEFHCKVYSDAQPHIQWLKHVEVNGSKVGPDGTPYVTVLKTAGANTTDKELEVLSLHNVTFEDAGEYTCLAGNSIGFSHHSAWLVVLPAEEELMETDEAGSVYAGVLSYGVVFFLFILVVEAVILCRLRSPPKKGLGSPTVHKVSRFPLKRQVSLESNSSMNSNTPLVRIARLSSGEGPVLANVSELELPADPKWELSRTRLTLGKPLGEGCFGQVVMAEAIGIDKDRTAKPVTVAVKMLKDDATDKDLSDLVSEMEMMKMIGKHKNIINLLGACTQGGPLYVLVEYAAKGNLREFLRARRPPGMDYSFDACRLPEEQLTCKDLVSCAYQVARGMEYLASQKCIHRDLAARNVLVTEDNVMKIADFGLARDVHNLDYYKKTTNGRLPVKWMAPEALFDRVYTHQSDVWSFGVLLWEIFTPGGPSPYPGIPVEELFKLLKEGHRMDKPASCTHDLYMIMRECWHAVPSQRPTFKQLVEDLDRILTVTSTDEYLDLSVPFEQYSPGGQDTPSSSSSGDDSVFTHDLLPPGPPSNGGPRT

## CCN1CCN(c2ccc(Nc3cc(N(C)C(=O)Nc4c(Cl)c(OC)cc(OC)c4Cl)ncn3)cc2)CC1 [BGJ398, 3-(2,6-dichloro-3,5-dimethoxyphenyl)-1-[6-[4-(4-ethylpiperazin-1-yl)anilino]pyrimidin-4-yl]-1-methylurea]
[1]
  FGFR3 over-activation: abolished the FGFR3 over-activation
  chondrodysplasia phenotype / skeletal anomalies: rescued the chondrodysplasia phenotype; also recorded: efficacy of BGJ398 in skeletal anomalies
[2]
  memory deficits in the NOR paradigm (discrimination index): reversed the memory deficits
[3]
  spatial memory deficit (NOL), exploration of the relocated object: sufficient to restore the spatial (NOL)
[4]
  episodic memory deficit (NOR), exploration of the novel object: to the same levels than control littermates
[5]
  FGFR3 overactivation in the brain: inhibited the FGFR3 overactivation in the brain
[6]
  coping strategy to an inescapable stress in the FST (immobility duration): reestablished the coping strategy to an inescapable stress
[7]
  binding specificity for FGFR3: highest binding specificity for FGFR3
